Laboratory results from paper doi:10.1101/2023.07.01.547317v1 (biorxiv, 2023).

Target: MoIcl1 (Pyricularia oryzae, UniProt P0CT06)
Experiment: biochemical
Format: binding

MoIcl1, sequence (P0CT06 whole entry, looked up): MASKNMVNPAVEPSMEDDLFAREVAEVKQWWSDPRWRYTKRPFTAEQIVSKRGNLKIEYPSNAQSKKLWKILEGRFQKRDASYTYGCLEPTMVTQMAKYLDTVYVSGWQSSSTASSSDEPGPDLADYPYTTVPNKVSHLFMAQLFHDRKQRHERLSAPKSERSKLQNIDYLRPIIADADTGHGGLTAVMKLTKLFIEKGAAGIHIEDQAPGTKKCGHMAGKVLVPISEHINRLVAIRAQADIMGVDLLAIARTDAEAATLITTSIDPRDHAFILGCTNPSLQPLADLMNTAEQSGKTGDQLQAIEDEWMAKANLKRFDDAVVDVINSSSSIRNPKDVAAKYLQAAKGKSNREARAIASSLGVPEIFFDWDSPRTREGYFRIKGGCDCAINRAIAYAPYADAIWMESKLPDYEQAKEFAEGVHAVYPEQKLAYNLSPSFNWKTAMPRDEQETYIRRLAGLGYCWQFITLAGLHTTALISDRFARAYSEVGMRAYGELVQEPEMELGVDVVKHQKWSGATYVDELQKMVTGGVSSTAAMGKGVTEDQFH

Which Kd does the source give for `COc1ccc2[nH]cc(CCNC(C)=O)c2c1` [melatonin, N-acetyl-5-methoxytryptamine] here?
The Kd was 287 µM.
